According to US20100248255A1, “NOVEL PEPTIDES” (KYOWA HAKKO KOGYO CO., LTD, priority 2005, published 2010):
No end group written: not given here.

Columns and labels:
[1] = direct administration to the paraventricular nucleus of the hypothalamus of male rats; Non-Patent Document 6; cited from earlier work
[2] = system: cardiac cells of the apoaequorin-expressing mice; experiment: Intracellular calcium ion increase (aequorin luminescence), heart of apoaequorin-expressing mice; format: cell-based, mouse; settings: for intracellular calcium concentration in cardiac cells (RLU per second): added at 25 seconds; for luminescence in the heart: organ pieces, peptide final concentrations of 1 μmol/L and of 5 μmol/L
Procedure: (§1) A heart or blood vessel is collected from transgenic mice systemically expressing apoaequorin (WO02/010371) produced by introducing an apoaequorin gene expression vector into fertilized eggs. The obtained heart or blood vessel is cut finely into pieces, suspended in a medium containing coelenterazine, and then incubated to incorporate coelenterazine into the cells to form aequorin (a complex of apoaequorin and coelenterazine). Since aequorin luminesces upon binding to intracellular calcium ions, the relative luminescence level in cells before and after addition of a medium containing the peptide or a pharmaceutically acceptable salt thereof is measured in a luminometer every second over time and is used as an indicator of intracellular calcium ion concentration. Increase in the relative luminescence level due to addition of the peptide or pharmaceutically acceptable salt thereof confirms that the peptide or pharmaceutically acceptable salt thereof has the activity to increase intracellular calcium ion concentration.
(§2) Whether Peptides 1 to 5, 9 and 10 synthesized in Example 2 have the activity of increasing intracellular calcium ion concentration was investigated using the organs of transgenic mice introduced with the apoaequorin gene and systemically expressing apoaequorin (hereinafter referred to as apoaequorin-expressing mice). In apoaequorin-expressing mouse cells, light is emitted when apoaequorin binds to a calcium ion in the presence of the luminescent substrate coelenterazine and thus the intracellular calcium ion concentration can be monitored. Patent Document (WO02/010371) discloses the method for producing apoaequorin-expressing mice, method for evaluating biologically active substances that use biological samples derived from the mice, and experimental results of evaluating biologically active peptides using the mouse organs as shown below. […] Therefore, apoaequorin-expressing mice can be used in the evaluation of the physiological activities of novel peptides.
(§3) Apoaequorin-expressing mice were produced according to the method disclosed in Reference Example 4 of Patent Document (WO02/010371). The apoaequorin-expressing mice were sacrificed, individual organs including thymus, spleen, bone, blood vessel, heart, kidney, adrenal gland, pancreas, pituitary gland, and uterus, were removed; and each of the organs was cut into small cubes of approximately 1 to 2 mm^3. Next, in 5-mL tubes (Rohren-Tubes; manufactured by Sarstedt, No. 55.476), three portions of each of the prepared organs were added to 50 μL of a 10 μmol/L solution of coelenterazine (manufactured by Molecular Probes) dissolved in RPMI 1640 medium, and these were cultured at 37° C. for three hours. After culturing, RPMI 1640 medium was added, and then Peptides 1 to 5, 9 and 10 dissolved in RPMI 1640 medium were added 25 seconds after the addition of RPMI 1640 until each peptide had final concentrations of 1 μmol/L and of 5 μmol/L, and the relative luminescence levels were measured every second immediately after the addition of RPMI 1640 medium by using a luminometer (AutoLumat LB953, manufactured by Berthold).

[3] = system: thymus; experiment: Aequorin luminescence, thymus of apoaequorin-expressing mice; format: cell-based, mouse; settings: organ pieces, peptide final concentrations of 1 μmol/L and of 5 μmol/L
Excerpt: as §2, §3

[4] = system: pituitary gland; experiment: Aequorin luminescence, pituitary gland of apoaequorin-expressing mice; format: cell-based, mouse; settings: organ pieces, peptide final concentrations of 1 μmol/L and of 5 μmol/L
Excerpt: as §2, §3

[5] = system: uterus; experiment: Aequorin luminescence, uterus of apoaequorin-expressing mice; format: cell-based, mouse; settings: organ pieces, peptide final concentrations of 1 μmol/L and of 5 μmol/L
Excerpt: as §2, §3

[6] = system: antiserum (rabbit, Peptide 7-KLH conjugate as antigen); experiment: Binding specificity of antiserum by competitive RIA with [125I]-labeled Peptide 1
Procedure: As controls, reactions that use RIA buffer instead of the antiserum to measure non-specific binding, and reactions […] that use RIA buffer instead of VGF-derived peptide solutions to measure the maximum binding level were carried out. Reactions for non-specific binding were performed in quadruplicates, and the other reactions were performed in duplicates, and for each of the reactants, the immune complex was precipitated as in the above-mentioned antibody titer measurements, and its radioactivity (cpm) was measured. The average radioactivity of non-specific binding reaction is defined as non-specific binding level N, the radioactivity value for each VGF-derived peptide addition reaction is defined as Y, and the radioactivity value of maximum binding reaction is defined as Z. The percentage ratio (B/B0) of antiserum specific binding level (B) with peptide addition to the maximum binding level (B0), was determined using the following formula.
B/B0 (%)={(Y−N)/(Z−N)}×100
Accordingly, the amount of peptide that achieves 50% B/B0, more specifically, the amount of peptide that yields 50% inhibition of the maximum binding level, was used as an indicator of the peptide binding activity to the antiserum.
The amounts of peptide/tube used for performing the measurements were 0.5, 1, 2, 4, 8, 16, 32, 64, 128, 256, 512 and 1024 fmol for Peptide 1; 1, 2, 4, 8, 16, 32, 64, 128, 256, 512 and 1024 fmol for Peptide 2; 1, 3.3, 10, 33, 100, 333, 1000, 3300, 10,000, 33,000, 100,000, 333,000 and 1,000,000 fmol for Peptide 3; and 1,000, 10,000, 100,000 and 1,000,000 fmol for Peptide 8.

[7] = system: vascular cells of the apoaequorin-expressing mice; experiment: Intracellular calcium ion increase (aequorin luminescence), blood vessel of apoaequorin-expressing mice; format: cell-based, mouse; settings: for intracellular calcium concentration in vascular cells (RLU per second): 5 μmol/L of peptide, added at 25 seconds; for luminescence in the blood vessel: organ pieces, peptide final concentrations of 1 μmol/L and of 5 μmol/L
Procedure: as §1, §2, §3

[8] = system: spleen; experiment: Aequorin luminescence, spleen of apoaequorin-expressing mice; format: cell-based, mouse; settings: organ pieces, peptide final concentrations of 1 μmol/L and of 5 μmol/L
Excerpt: as §2, §3

[9] = target: antiserum showing an antibody titer of 9×10^5 (rabbit antiserum raised against the conjugate between Peptide 7 and KLH); experiment: competitive RIA against [^125I]-labeled Peptide 1
[10] = VGF-derived peptides, sequentially diluted
[11] = non-VGF peptides at 1, 10, and 100 pmol

## rat VGF (599-617): partial peptide of rat VGF (556-617), positions 599-617 (LQEQEELENYIEHVLLHRP; UniProt P20156 599-617, looked up, fragment)
[1]
  erection inducing activity: showed an erection inducing activity

## HYHHALPPSRHYP [Peptide 1]
[2]; 1 μmol/L of peptide
  intracellular calcium concentration in cardiac cells (RLU per second): increase of intracellular calcium concentration
[2]
  luminescence in the heart: luminescence was observed
[3]
  luminescence in the thymus: luminescence was observed
[4]
  luminescence in the pituitary gland: luminescence was observed
[5]
  luminescence in the uterus: luminescence was observed
[6]; [10]
  inhibition of antiserum binding to [125I]-labeled Peptide 1: same degree of quantity-dependent inhibition
[6]; antiserum diluted 9×10^5 folds, 4° C. for 40 hours
  amount of peptide for 50% inhibition of the maximum binding level (50% B/B0): 7.5 fmol

## neuromedin U-8
[6]; [11]
  inhibition of antiserum binding to [125I]-labeled Peptide 1: none of the peptides showed inhibition

## PHI-27 (HADGVFTSDFSKLLGQLSAKKYLESLM; ends and bridges not checked; UniProt P01282 81-107, looked up) [non-VGF peptide]
[6]; [11]
  inhibition of antiserum binding to [125I]-labeled Peptide 1: none of the peptides showed inhibition

## calcitonin receptor-stimulating peptide
[6]; [11]
  inhibition of antiserum binding to [125I]-labeled Peptide 1: none of the peptides showed inhibition

## calcitonin
[6]; [11]
  inhibition of antiserum binding to [125I]-labeled Peptide 1: none of the peptides showed inhibition

## NC(=O)CC[C@@H]1NC(=O)[C@H](Cc2ccccc2)NC(=O)[C@H](Cc2ccc(O)cc2)NC(=O)[C@@H](N)CSSC[C@@H](C(=O)N2CCC[C@H]2C(=O)N[C@@H](CCCN=C(N)N)C(=O)NCC(N)=O)NC(=O)[C@H](CC(N)=O)NC1=O [vasopressin]
[6]; [11]
  inhibition of antiserum binding to [125I]-labeled Peptide 1: none of the peptides showed inhibition

## rat VGF (577-617): partial peptide of rat VGF (556-617), positions 577-617 (HHPDLEAQARRAQEEADAEERRLQEQEELENYIEHVLLHRP; UniProt P20156 577-617, looked up, fragment)
[1]
  erection inducing activity: showed an erection inducing activity

## Leu-enkephalin
[6]; [11]
  inhibition of antiserum binding to [125I]-labeled Peptide 1: none of the peptides showed inhibition

## adrenomedulin
[6]; [11]
  inhibition of antiserum binding to [125I]-labeled Peptide 1: none of the peptides showed inhibition

## Peptide 10: positions 533 to 552 of the amino acid sequence of human VGF (EEDEVYPPGPYHPFPNYIRP; synthetic Peptide 10, positions 533-552 of human VGF, C-terminal VGF-derived peptide)
[2]; 1 μmol/L of peptide
  intracellular calcium concentration in cardiac cells (RLU per second): increase of intracellular calcium concentration
[2]
  luminescence in the heart: luminescence was observed
[7]
  intracellular calcium concentration in vascular cells (RLU per second): increase in the intracellular calcium concentration
  luminescence in the blood vessel: luminescence was observed

## Peptide 8: positions 606 to 615 of the human VGF amino acid sequence (YIEHVLLRRP; synthetic Peptide 8, positions 606-615 of human VGF, C-terminal VGF-derived peptide)
[6]; [10]
  inhibition of antiserum binding to [125I]-labeled Peptide 1: did not show any inhibition

## rat VGF (556-576): partial peptide of rat VGF, positions 556-576
[1]
  erection inducing activity: this activity was not observed

## rat VGF (588-617): partial peptide of rat VGF (556-617), positions 588-617 (AQEEADAEERRLQEQEELENYIEHVLLHRP; UniProt P20156 588-617, looked up, fragment)
[1]
  erection inducing activity: showed an erection inducing activity

## PAMP-20
[6]; [11]
  inhibition of antiserum binding to [125I]-labeled Peptide 1: none of the peptides showed inhibition

## Peptide 4: positions 586 to 615 of human VGF; same sequence as peptide V derived from bovine VGF (AQEEAEAEERRLQEQEELENYIEHVLLRRP; synthetic Peptide 4, positions 586-615 of human VGF, C-terminal VGF-derived peptide)
[7]
  intracellular calcium concentration in vascular cells (RLU per second): increase of intracellular calcium concentration
  luminescence in the blood vessel: luminescence was observed
[3]
  luminescence in the thymus: luminescence was observed
[8]
  luminescence in the spleen: luminescence was observed
[4]
  luminescence in the pituitary gland: luminescence was observed

## corticotropin-releasing factor
[6]; [11]
  inhibition of antiserum binding to [125I]-labeled Peptide 1: none of the peptides showed inhibition

## substance K
[6]; [11]
  inhibition of antiserum binding to [125I]-labeled Peptide 1: none of the peptides showed inhibition

## Peptide 9: positions 485 to 503 of the amino acid sequence of human VGF (NAPPEPVPPPRAAPAPTHV; synthetic Peptide 9, positions 485-503 of human VGF, C-terminal VGF-derived peptide)
[7]
  intracellular calcium concentration in vascular cells (RLU per second): increase of intracellular calcium concentration
  luminescence in the blood vessel: luminescence was observed

## Met-enkephalin-Arg-Gly-Leu (YGGFMRGL) [non-VGF peptide]
[6]; [11]
  inhibition of antiserum binding to [125I]-labeled Peptide 1: none of the peptides showed inhibition

## H-TLQPPSALRRRHYHHALPPSRHYPGREAQA-OH [Peptide 3 (SEQ ID NO: 2)]
[9]
  fold amount required for the same degree of inhibition as Peptides 1 and 2: 10000 fold

B1: Peptide 5: positions 554 to 615 in the amino acid sequence of human VGF (peptide)
chain: TLQPPSALRRRHYHHALPPSRHYPGREAQARRAQEEAEAEERRLQEQEELENYIEHVLLRRP
modifications: synthetic Peptide 5, positions 554-615 of human VGF, C-terminal VGF-derived peptide
[2]; 5 μmol/L of peptide
  intracellular calcium concentration in cardiac cells (RLU per second): increase of intracellular calcium concentration
[2]
  luminescence in the heart: luminescence was observed
